Test system: Bovine cardiac myofibrils
Experiment: In vitro model of dose-dependent myofibril ATPase modulation (AC1.4, pyruvate kinase/lactate dehydrogenase-coupled ATPase assay at pCa25)
Format: biochemical
Details: concentration at which ATPase activity was 1.4-fold higher than the bottom of the dose curve, mean of a minimum of two independent tests
Description: In vitro Model of Dose-Dependent Myofibril ATPase Modulation: Dose responses were measured using a calcium-buffered, pyruvate kinase and lactate dehydrogenase-coupled ATPase assay containing the following reagents (concentrations expressed are final assay concentrations): Potassium PIPES (12 mM), MgCl2 (2 mM), ATP (1 mM), DTT (1 mM), BSA (0.1 mg/mi), NADH (0.5 mM), PEP (1.5 mM), pyruvate kinase (4 U/ml), lactate dehydrogenase (8 U/ml), and antifoam (90 ppm). The pH was adjusted to 6.80 at 22° C. by addition of potassium hydroxide.
Bovine cardiac myofibrils were obtained by homogenizing the appropriate tissue in the presence of detergent. Such treatment removes membranes and majority of soluble cytoplasmic proteins but leaves intact cardiac sarcomeric acto-myosin apparatus. Concentrations of myofibrils were adjusted to achieve the necessary rate of ATP hydrolysis (typically 0.25-1.0 mg/ml).
Assays were performed by first preparing a dilution series of test chemical entity, each with an assay mixture containing potassium Pipes, MgCl2, BSA, DTT, pyruvate kinase, lactate dehydrogenase, myofibrils, antifoam, EGTA, CaCl2, and water. The assay was started by adding an equal volume of solution containing potassium Pipes, MgCl2, BSA, DTT, ATP, NADH, PEP, antifoam, and water. ATP hydrolysis was monitored by absorbance at 340 nm. The resulting dose response curve was fit by the 4 parameter equation y=Bottom+((Top−Bottom)/(1+((EC50/X)^Hill))). […] AC1.4 values reported in the table below are mean values based on a minimum of two independent tests.

Row | Structure (SMILES) | AC1.4
1 | N#CC1CN(S(=O)(=O)N2CCC[C@H](C(=O)N3CC(F)(F)C[C@@H]3C(=O)NCc3ccc(C(F)(F)F)cc3)C2)C1 [Example 25, 1-(((3S)-1-((3-cyano-1-azetidinyl)sulfonyl)-3-piperidinyl)carbonyl)-4,4-difluoro-N-(4-(trifluoromethyl)benzyl)-D-prolinamide] | 0.0289 µM
2 | COC1CN(S(=O)(=O)c2cccc(C(=O)N3CCC[C@@H]3C(=O)NCc3ccc(C(F)(F)F)cc3)c2)C1 [Example 258, 1-((3-((3-methoxy-1-azetidinyl)sulfonyl)phenyl)carbonyl)-N-(4-(trifluoromethyl)benzyl)-D-prolinamide] | 0.6326 µM
3 | CS(=O)(=O)c1ccc(N)c(C(=O)N2CCC[C@@H]2C(=O)N[C@@H](c2ccc(C(F)(F)F)cc2F)C2CC2)c1 [Example 345, 1-(2-amino-5-(methylsulfonyl)benzoyl)-N-((R)-cyclopropyl(2-fluoro-4-(trifluoromethyl)phenyl)methyl)-D-prolinamide] | 0.9744 µM
4 | N#CC1CN(S(=O)(=O)N2CCC[C@H](C(=O)N3CCC[C@@H]3C(=O)NCc3ccc(F)cc3C(F)(F)F)C2)C1 [Example 652, 1-(((3S)-1-((3-cyano-1-azetidinyl)sulfonyl)-3-piperidinyl)carbonyl)-N-(4-fluoro-2-(trifluoromethyl)benzyl)-D-prolinamide] | 4.5245 µM
5 | CCCCCC1CN(S(=O)(=O)N2CCC[C@H](C(=O)N3CCC[C@@H]3C(=O)NCc3ccc(C(F)(F)F)cc3)C2)C1 [Example 735, 1-(((3S)-1-((3-pentyl-1-azetidinyl)sulfonyl)-3-piperidinyl)carbonyl)-N-(4-(trifluoromethyl)benzyl)-D-prolinamide] | 7.0265 µM
6 | NS(=O)(=O)c1cccc(C(=O)N2CCCC[C@@H]2C(=O)N[C@@H](c2cc(F)c(Cl)cc2F)C2CC2)c1 [Example 194, (2R)-N-((R)-(4-chloro-2,5-difluorophenyl)(cyclopropyl)methyl)-1-(3-sulfamoylbenzoyl)-2-piperidinecarboxamide] | 0.385 µM
7 | C[C@@H](NC(=O)[C@H]1CCCN1C(=O)[C@H]1CCCN(S(=O)(=O)N2CC(S(C)(=O)=O)C2)C1)c1ccc(F)cc1F [Example 321, N-((1R)-1-(2,4-difluorophenyl)ethyl)-1-(((3S)-1-((3-(methylsulfonyl)-1-azetidinyl)sulfonyl)-3-piperidinyl)carbonyl)-D-prolinamide] | 0.8725 µM
8 | CS(=O)(=O)c1cccc(C(=O)N2C[C@@H](C(F)F)C[C@@H]2C(=O)N[C@@H](c2ccc(C(F)(F)F)cc2F)C2CC2)c1 [Example 656, (4S)-N-((R)-cyclopropyl(2-fluoro-4-(trifluoromethyl)phenyl)methyl)-4-(difluoromethyl)-1-(3-(methylsulfonyl)benzoyl)-D-prolinamide] | 4.071 µM
9 | CS(=O)(=O)N1CCN[C@H](C(=O)N2[C@@H](C(=O)N[C@@H](c3cc(F)c(Cl)cc3F)C3CC3)C[C@H]3C[C@H]32)C1 [Example 724, (1R,3R,5R)-N-((R)-(4-chloro-2,5-difluorophenyl)(cyclopropyl)methyl)-2-(((2S)-4-(methylsulfonyl)-2-piperazinyl)carbonyl)-2-azabicyclo[3.1.0]hexane-3-carboxamide] | 6.475 µM
10 | C[C@@H](NC(=O)[C@H]1CCCN1C(=O)[C@H]1CCCN(S(=O)(=O)N2CC(C#N)C2)C1)c1ccc(C#N)cc1 [Example 540, 1-(((3S)-1-((3-cyano-1-azetidinyl)sulfonyl)-3-piperidinyl)carbonyl)-N-((1R)-1-(4-cyanophenyl)ethyl)-D-prolinamide] | 2.7885 µM
11 | Cc1ccc([C@@H](C)NC(=O)[C@H]2CCCN2C(=O)[C@H]2CCCN(S(=O)(=O)N3CC(C#N)C3)C2)c(F)c1 [Example 98, 1-(((3S)-1-((3-cyano-1-azetidinyl)sulfonyl)-3-piperidinyl)carbonyl)-N-((1R)-1-(2-fluoro-4-methylphenyl)ethyl)-D-prolinamide] | 0.1474 µM
12 | COC(=O)CN(C)S(=O)(=O)c1cccc(C(=O)N2CCC[C@@H]2C(=O)NCc2ccc(C(F)(F)F)cc2)c1 [Example 346, methyl (R)-2-(N-methyl-3-(2-((4-(trifluoromethyl)benzyl)carbamoyl)pyrrolidine-1-carbonyl)phenylsulfonamido)acetate] | 1.0139 µM
13 | O=C(N[C@@H](c1ccc(C(F)(F)F)c(F)c1)C1CC1)[C@H]1C[C@H]2C[C@H]2N1C(=O)c1cncc(S(=O)(=O)C2CC2)c1 [Example 491, (1R,3R,5R)-N-((R)-cyclopropyl(3-fluoro-4-(trifluoromethyl)phenyl)methyl)-2-((5-(cyclopropylsulfonyl)-3-pyridinyl)carbonyl)-2-azabicyclo[3.1.0]hexane-3-carboxamide] | 2.181 µM
14 | CCOc1ccc(S(C)(=O)=O)cc1C(=O)N1CCC[C@@H]1C(=O)N[C@@H](c1ccc(C(F)(F)F)cc1F)C1CC1 [Example 554, N-((R)-cyclopropyl(2-fluoro-4-(trifluoromethyl)phenyl)methyl)-1-(2-ethoxy-5-(methylsulfonyl)benzoyl)-D-prolinamide] | 2.688 µM
15 | NC(=O)C1(c2cccc(C(=O)N3[C@@H](C(=O)N[C@@H](c4ccc(C(F)(F)F)cc4F)C4COC4)C[C@H]4C[C@H]43)c2)CC1 [Example 349, (1R,3R,5R)-2-(3-(1-carbamoylcyclopropyl)benzoyl)-N-((R)-(2-fluoro-4-(trifluoromethyl)phenyl)(3-oxetanyl)methyl)-2-azabicyclo[3.1.0]hexane-3-carboxamide] | 1.0296 µM
16 | CCCS(=O)(=O)c1cccc(C(=O)N2CCCC[C@@H]2C(=O)N[C@@H](c2ccc(C(F)(F)F)cc2F)C2CC2)c1 [Example 89, (2R)-N-((R)-cyclopropyl(2-fluoro-4-(trifluoromethyl)phenyl)methyl)-1-(3-(propylsulfonyl)benzoyl)-2-piperidinecarboxamide] | 0.1357 µM
17 | COc1cc(F)c([C@H](NC(=O)[C@H]2C[C@H]3C[C@H]3N2C(=O)c2cccc(S(C)(=O)=O)c2)C2CC2)cc1F [Example 747, (1R,3R,5R)-N-((R)-cyclopropyl(2,5-difluoro-4-methoxyphenyl)methyl)-2-(3-(methylsulfonyl)benzoyl)-2-azabicyclo[3.1.0]hexane-3-carboxamide] | 7.287 µM
18 | CN(Cc1ccc(C(F)(F)F)cc1)C(=O)[C@H]1CCCN1C(=O)[C@H]1CCCN(S(=O)(=O)N2CC(C#N)C2)C1 [Example 363, 1-(((3S)-1-((3-cyano-1-azetidinyl)sulfonyl)-3-piperidinyl)carbonyl)-N-methyl-N-(4-(trifluoromethyl)benzyl)-D-prolinamide] | 1.143 µM
19 | N#CC1CN(S(=O)(=O)c2cccc(C(=O)N3Cc4ccccc4CC3C(=O)NCc3ccc(C(F)(F)F)cc3)c2)C1 (stereo not shown) [Example 671, 2-(3-((3-cyanoazetidin-1-yl)sulfonyl)benzoyl)-N-(4-(trifluoromethyl)benzyl)-1,2,3,4-tetrahydroisoquinoline-3-carboxamide] | 4.776 µM
20 | CS(=O)(=O)c1cccc(C(=O)N2C[C@H](C(F)F)C[C@@H]2C(=O)N[C@@H](c2ccc(C(F)(F)F)cc2F)C2CC2)c1 [Example 354, (4R)-N-((R)-cyclopropyl(2-fluoro-4-(trifluoromethyl)phenyl)methyl)-4-(difluoromethyl)-1-(3-(methylsulfonyl)benzoyl)-D-prolinamide] | 1.0425 µM
21 | Cc1ccc(C)c(CNC(=O)[C@H]2CCCN2C(=O)[C@H]2CCCN(S(=O)(=O)N3CC(C#N)C3)C2)c1 [Example 765, 1-(((3S)-1-((3-cyano-1-azetidinyl)sulfonyl)-3-piperidinyl)carbonyl)-N-(2,5-dimethylbenzyl)-D-prolinamide] | 7.9325 µM
22 | Cc1ccnc(C(=O)N2[C@@H](C(=O)N[C@@H](c3cc(F)c(C(F)(F)F)cc3F)C3CC3)C[C@H]3C[C@H]32)c1 [Example 658, (1R,3R,5R)-N-((R)-cyclopropyl(2,5-difluoro-4-(trifluoromethyl)phenyl)methyl)-2-((4-methyl-2-pyridinyl)carbonyl)-2-azabicyclo[3.1.0]hexane-3-carboxamide] | 4.159 µM
23 | Cc1ccc(S(N)(=O)=O)cc1C(=O)N1CCC[C@@H]1C(=O)N[C@@H](c1ccc(C(F)(F)F)cc1F)C1CC1 [Example 716, N-((R)-cyclopropyl(2-fluoro-4-(trifluoromethyl)phenyl)methyl)-1-(2-methyl-5-sulfamoylbenzoyl)-D-prolinamide] | 6.168 µM
24 | O=C(N[C@@H](c1cc(F)c(Cl)cc1F)C1COC1)[C@H]1C[C@@H](O)CN1C(=O)c1cncc(C(F)(F)F)c1 [Example 638, (4R)-N-((R)-(4-chloro-2,5-difluorophenyl)(3-oxetanyl)methyl)-4-hydroxy-1-((5-(trifluoromethyl)-3-pyridinyl)carbonyl)-D-prolinamide] | 4.1835 µM
25 | CS(=O)(=O)c1cncc(C(=O)N2[C@@H](C(=O)N[C@@H](c3cc(F)c(C(F)(F)F)cc3F)C3CC3)C[C@@H]3C[C@@H]32)c1 [Example 598, (1S,3R,5S)-N-((R)-cyclopropyl(2,5-difluoro-4-(trifluoromethyl)phenyl)methyl)-2-((5-(methylsulfonyl)-3-pyridinyl)carbonyl)-2-azabicyclo[3.1.0]hexane-3-carboxamide] | 3.0525 µM
